{
  "source": "patent US9079821B2",
  "about": "“Quinone based nitric oxide donating compounds” (NICOX S.A., priority 2011, dated 2015)",
  "key": {"[1]": {"tested_on": "lipid peroxidation of hepatic microsomal membranes", "assay": "In vitro antioxidant activity (TBARS test), Method B (2.5 μM FeSO4)", "format": "biochemical, rat", "conditions": "inhibition of TBARS production, read-out: Antioxidant activity IC50 μM (CL 95%)", "procedure": "The antioxidant properties of compounds (6) (disclosed in example 1) and compound (23) (disclosed in example 19) and reference antioxidant compounds were assessed after NADPH-induced lipidic peroxidation of membrane lipids in rat hepatocytes using the detection of 2-thiobarbituric acid reactive substances (TBARS) by visible spectroscopy. Hepatic microsomal membranes from male Wistar rats (200-250 g) were prepared by differential centrifugation (8000 g, 20 min; 120000 g, 1 h) in a HEPES/sucrose buffer (10 mM, 250 mM, pH 7.4) and stored at −80° C. Incubation was performed at 37° C. in a Tris-HCl/KCl (100 mM/150 mM, pH 7.4) containing microsomal membranes (2 mg prot/mL), sodium ascorbate (100 μM), and DMSO solutions of the tested compounds. Lipid peroxidation was initiated by adding ADP-FeCl3 and NADPH (Method A) or 2.5 μM FeSO4 (Method B) (as described by Boschi D. et al., J. Med. Chem. 2006, 49:2886-2897). Aliquots were taken from the incubation mixture at 5, 15, and 30 min and treated with trichloroacetic acid (TCA) 10% w/v. Lipid peroxidation was assessed by spectrophotometric (543 nm) determination of the TBARS consisting mainly of malondialdehyde (MDA). TBARS concentrations (expressed in nmol/mg protein) were obtained by interpolation with a MDA standard curve. […] IC50 values were calculated by nonlinear regression analysis."}, "[2]": {"tested_on": "NADPH-induced lipidic peroxidation of membrane lipids (hepatic microsomal membranes)", "assay": "In vitro antioxidant activity (TBARS test), Method A (ADP-FeCl3 and NADPH)", "format": "biochemical, rat", "conditions": "inhibition of TBARS production after 30 min incubation, read-out: Antioxidant activity IC50 μM (CL 95%)", "procedure": "The antioxidant properties of compounds (6) (disclosed in example 1) and compound (23) (disclosed in example 19) and reference antioxidant compounds were assessed after NADPH-induced lipidic peroxidation of membrane lipids in rat hepatocytes using the detection of 2-thiobarbituric acid reactive substances (TBARS) by visible spectroscopy.\nHepatic microsomal membranes from male Wistar rats (200-250 g) were prepared by differential centrifugation (8000 g, 20 min; 120000 g, 1 h) in a HEPES/sucrose buffer (10 mM, 250 mM, pH 7.4) and stored at −80° C. Incubation was performed at 37° C. in a Tris-HCl/KCl (100 mM/150 mM, pH 7.4) containing microsomal membranes (2 mg prot/mL), sodium ascorbate (100 μM), and DMSO solutions of the tested compounds. Lipid peroxidation was initiated by adding ADP-FeCl3 and NADPH (Method A) or 2.5 μM FeSO4 (Method B) (as described by Boschi D. et al., J. Med. Chem. 2006, 49:2886-2897). Aliquots were taken from the incubation mixture at 5, 15, and 30 min and treated with trichloroacetic acid (TCA) 10% w/v. Lipid peroxidation was assessed by spectrophotometric (543 nm) determination of the TBARS consisting mainly of malondialdehyde (MDA). TBARS concentrations (expressed in nmol/mg protein) were obtained by interpolation with a MDA standard curve. The antioxidant activity of tested compounds was evaluated as the percent inhibition of TBARS production with respect to control samples, using the values obtained after 30 min of incubation. IC50 values were calculated by nonlinear regression analysis."}, "[3]": {"tested_on": "lipid peroxidation of hepatic microsomal membranes", "conditions": "Method B; values from Chegaev, K. et al. (footnotes a, b); read-out: Antioxidant activity IC50 μM (CL 95%); cited from earlier work"}},
  "note": "Like-named read-outs stand apart in the source and are kept apart here.",
  "data": [
    {"compound": "O=C(O)/C=C/c1ccc(O)c(O)c1", "note": "[Caffeic acid]", "values": [
      {"measurement": "IC50", "setting": "[1]", "value": 33, "unit": "µM"}
    ]},
    {"compound": "CC1=C(CCCCCCO[N+](=O)[O-])C(=O)c2ccccc2C1=O", "note": "[Compound (23), 6-(3-methyl-1,4-dioxo-1,4-dihydronaphthalen-2-yl) hexyl nitrate]", "values": [
      {"measurement": "IC50", "setting": "[2]", "value": 1.4, "unit": "µM"}
    ]},
    {"compound": "CC1=NN(c2ccccc2)C(=O)C1", "note": "[Edavarone]", "values": [
      {"measurement": "IC50", "setting": "[3]", "value": 17, "unit": "µM"}
    ]},
    {"compound": "COC1=C(OC)C(=O)C(CCCCCCCCCCO)=C(C)C1=O", "note": "[Idebenone, reference compound]", "values": [
      {"measurement": "IC50", "setting": "[2]", "value": 1.6, "unit": "µM"}
    ]},
    {"compound": "COc1ccc2[nH]cc(CCNC(C)=O)c2c1", "note": "[Melatonin]", "values": [
      {"measurement": "IC50", "setting": "[3]", "value": 476, "unit": "µM"}
    ]}
  ]
}
